Measured values: patent US10351519B2, “Sulfamate derivative compounds, processes for preparing them and their uses” (BIO-PHARM SOLUTIONS CO., LTD., priority 2016, dated 2019)

Key:
Assay type in all cases: in vivo
Sprague-Dawley rats [1] = test: Antiallodynic activity on Chung model (SNL, spinal nerve ligation); conditions: orally; for ED50: Rattus norvegicus, po, at peak time
Excerpt: Male Sprague-Dawley rats (100-130 g, Orient Bio, Korea) were habituated for 1 week before the experiment and allowed free access to food and water throughout the experimentation. Room temperature and humidity were maintained at 24±2 and 50±10%, respectively. The neuropathic surgery (SNL, Spinal nerve ligation) model was done as described in Kim and Chung (1992). Briefly, an animal was put under gaseous anesthesia with isoflurane. The left lumber spinal nerve L5 and L6 were isolated and tightly ligated with 6-0 silk thread. The wound muscle was closed with Catgut® chrom 3/0 thread and skin was closed with Dafilon 3/0 tread. Sham controls were prepared in the same manner with the spinal nerves exposed, but with no ligated L5 and L6 nerves. Preparation of the vehicle controls were identical to the group treated with compound, except for administration of vehicles without compound in the vehicle control group.
Tactile sensitivity (Mechanical allodynia) was evaluated using von Frey monofilaments before and after treatment, and animals were included in the study only if the withdrawal threshold value was less than 4 g. One week after surgery, SNL-operated animals, sham-operated animals and vehicle control animals were tested for tactile sensitivity with von Frey monofilaments 3 trials in each animal. All Animals were placed in a stainless steel mash chamber and habituated for 30 min in the test cage. The tactile sensitivity for the ipsilateral hind paw was measured using the up-and-down method (Dixon, 1980) with seven von Frey monofilaments (0.4, 1, 2, 4, 6, 8, and 15 g) in 3 trials. The tactile sensitivity test was followed by Dixon's method (Dixon, 1980). The 50% paw withdrawal threshold for each paw was calculated using the following formula: [Xth] log=[vFr] log+ky where [vFr] is the force of the last von Frey used, k=0.2249 which is the average interval (in log units) between the von Frey monofilaments, and y is a value that depends upon the pattern of withdrawal responses (Dixon, 1980).
All animals were fasted 18 h before the administration of the compounds. Antiallodynic effect of compounds were evaluated at the three dose, orally administrated in a volume of 5 ul/g, bw in a vehicle of 30% (v/v) PEG 400 or 20% (v/v) Tween 80. The test was performed at the peak time of efficacy after compound administration.
The relative values compared to the sham group (% control) were calculated and shown in Table 3, which show an antiallodynic effect of the test compounds on SNL model in rats.

SD rats = test: Anti-epilepsy activity, scPTZ test, rat; conditions: for ED50: Rattus norvegicus, ip
Excerpt: In this experiment, each test compound sample was formulated as described in Biological Experimental Example I, and administered intraperitoneally to the test animals (mice; ICR or Rat; SD); Experimental animals, male ICR mice and male SD rats, were purchased from OrientBio or Nara biotech, Korea, and housed 4-5 mice per a cage for 4-5 days. The range of mice body weight was used between 19 and 26 grams and range of rats body weight was used between 100 and 130 grams. After Peak time (0.5, 1, 2 and 4 hr) from the administration, PTZ (Pentylenetetrazol) was administered subcutaneously in the concentration capable of inducing 97% intermittent convulsions (mice: 76-110 mg/kg·bw, 10 μl/g, or rats: 79-110 mg/kg·bw, 2 μl/g). If clonic seizure was not observed for at least 30 minutes in the PTZ administered animal, it can be considered that the test compound has anti-epilepsy activity. The median effective dose (ED50) is determined using 6 animals per a concentration (total three different concen-trations), and calculated by Litchfield and Wicoxon log-probit method which is a dose-response relationship.

Sprague-Dawley rats [2] = test: Lithium-pilocarpine induced epilepsy test, prevention; conditions: for ED50: Rattus norvegicus, ip, read-out: Lithium pilocarpine model (pre) ED50; for Lithium pilocarpine model (pre) peak time: i.p.
Procedure: Male Sprague-Dawley rats (purchased from Orient Bio Inc. Korea) of body weight 175-200 grams were used for these studies and 3 rats per cage were housed for 4-5 days. On the day prior to SE, rats received 127 mg/kg lithium chloride (Sigma, St. Louis, Mo., U.S.A.) intraperitoneally (i.p.). Approximately 18-20 h following this treatment, rats were given an i.p. injection of CD97 dose (30-43 mg/kg) pilocarpine (Sigma). An i.p. injection of 2 mg/kg methyl-scopolamine (Sigma) was administered 30 min prior to pilocarpine to block the effects of the muscarinic agonist on peripheral cholinergic receptors. Test drugs were dissolved in 30% PEG 400 or 20% tween80 (Sigma).
The drugs were administered intraperitoneally (i.p.) in a volume of 2 ul/g body weight. Pharmacological effects of all of the test materials were evaluated to compare test groups (n=6) with a control group (n=6). Control group was administered vehicle only. The efficacy was measured 0.5, 1, 2, or 4 hours after the administration of the test material. The time point that the most animals were protected was defined as peak time and the ED50 was determined at peak time. The animals were then transferred to observation cages and observed continuously for 90 min. Seizure was elicited in approximately 95% of the control group. Protection was defined as complete absence of seizure grade 3-5 (Racine scale; Racine, 1972) over the 90-min observation period. The effective dose of the compound necessary to protect 50% of the animals against seizures compared to controls (i.e. ED50) was determined by a curve fitting program (Excel 2007, Microsoft).

Row | Compound | SNL Peak Time (Sprague-Dawley rats [1]) | SNL efficacy % (Sprague-Dawley rats [1]; 30 mg/kg) | scPTZ test (ip) Peak time (SD rats) | scPTZ test (ip) efficacy % (SD rats; 40 mg/kg) | ED50 (Sprague-Dawley rats [1]) | ED50 (SD rats) | ED50 (Sprague-Dawley rats [2]) | Lithium pilocarpine model (pre) peak time (Sprague-Dawley rats [2])
1 | C[C@@H](OS(N)(=O)=O)[C@H](O)c1ccccc1Cl [Example 2, (1R, 2R)-1-(2-chlorophenyl)-1-hydroxypropan-2-yl sulfamate] | 1 h | 30(38.6%) | 1 h | 33.3% | – | – | – | –
2 | C[C@H](OS(N)(=O)=O)[C@@H](O)c1c(Cl)cccc1Cl [Example 7, (1S, 2S)-1-(2,6-dichlorophenyl)-1-hydroxypropan-2-yl sulfamate] | 0.5 h | – | (0.5 h) | – | 4.4 mg/kg | 10 mg/kg | 23.3 mg/kg | (0.5 h)
3 | COCO[C@H](c1ccccc1Cl)[C@@H](C)OS(N)(=O)=O [Example 70, (1R, 2R)-1-(2-chlorophenyl)-1-(methoxymethoxy)propan-2-yl sulfamate] | 1 h | – | (1 h) | – | 6.5 mg/kg | 36 mg/kg | 100 mg/kg | (0.5 h)
4 | C[C@@H](OS(N)(=O)=O)[C@H](O)c1c(Cl)cccc1Cl [Example 8, (1R, 2R)-1-(2,6-dichlorophenyl)-1-hydroxypropan-2-yl sulfamate] | 1 h | – | (1 h) | – | 35.3 mg/kg | 15.3 mg/kg | 29.3 mg/kg | (2 h)
